Data from US4466980A, “Thiaprostaglandin E1 derivatives, process for production thereof, and pharmaceutical use thereof” (Teijin Limited, priority 1980, dated 1984).
Converted amounts (≈) assume the structure as drawn.

Legend:
platelet aggregation [1] = experiment: in vitro inhibitory activity of platelet aggregation (ADP); assay type: cell-based, rabbit (Japanese domestic white male); conditions: Oryctolagus cuniculus, rabbit PRP, 10 μM ADP, 37° C., read-out: IC50 (minimum concentration which inhibited more than 50% of platelet aggregation)
Description: The in vitro platelet aggregation imhibiting activity of the compounds of the invention were examined by using rabbits. Blood was withdrawn from the ear vein of Japanese domestic white male rabbits weighing 2.5 to 3.5 kg. A mixture of a 3.8% trisodium citrate solution and the blood in a ratio of 1:9 was centrifuged at a speed of 1000 rpm for 10 minutes. The upper layer was separated as platelet-rich plasma (PRP). The lower layer was further centrifuged at a speed of 2800 rpm for 10 minutes. The upper layer was separated as platelet-poor plasma (PPP). The number of platelets was adjusted to 6×10^5 /μl to 7×10^5 /μl by diluting the PRP with PPP. 25 microliters of the test compounds prepared as shown below was added in an amount of 25 to 250 microliters of PRP after the adjustment, and the mixture was pre-incubated at 37° C. for 2 minutes, and then 10 μM (final) of ADP was added. By using an aggregometer, changes in transmission were recorded.
The drug was dissolved in ethanol to a concentration of 10 mg/ml, and successively diluted with phosphate buffer (pH 7.4) prior to use.
The rate of inhibition of platelet aggregation was determined from the following equation. [formula] To : the transmittance of the system containing the phosphate buffer, T: the transmittance of the sytem to which the test drug was added.
The minimum concentration of the drug which inhibited more than 50% of platelet aggregation was shown as an IC50 value.

[2] = tested on: blood pressure and heart beat rate of rats; experiment: hypotensive activity and heart beat rate, intravenous injection in anesthetized rats; assay type: in vivo, male wister rats; conditions: Rattus norvegicus, i.v.; for ED (10% increase of heart rate): read-out: H-ED10 (dosage causing a 10% increase of the heart rate); for ED (20% lowering of blood pressure): read-out: P-ED20 (dosage causing a 20% lowering of the mean blood pressure)
Description: (1) The actions of the thiaprostaglandin E1 derivatives of the invention on the blood pressure and heart beat rate of rats were examined by intravenous injection under anesthesia. Male wister rats weighing about 250 g were used. Urethane (500 mg/kg) and α-chloralose (100 mg/kg) were intraperitoneally administered to the rats. The rats were anesthetized and fixed in place. Each of the test compounds was dissolved in a small amount of ethanol and diluted with physiological saline to adjust the final ethanol concentration to not more than 5%. The solution was intravenously injected into the rats through a catheter inserted into the femoral vein. The blood pressure of the rats was measured by a pressure transducer through a catheter inserted into the carotid artery of the rats. The heart beat rate was determined from the blood pressure pulse. The action of the test compound of the blood pressure was expressed as the dosage (p-ED20, μg/kg) of the test compound which caused a 20% lowering of the mean blood pressure before administration of the compound. The action of the test compound on the heart rate was expressed as the dosage (H-ED10, μg/kg) of the test compound which caused a 10% increase of the heart rate from the heart beat rate before administration of the test compound.

platelet aggregation [3] = experiment: extra vivo inhibitory activity of platelet aggregation after oral administration; assay type: in vivo, guinea pigs (Hartley strain); conditions: Cavia porcellus; for inhibition at 3 mg/kg: 3 mg/kg p.o.; for inhibition at 10 mg/kg: 10 mg/kg p.o.
Description: The extra vivo platelet aggregation inhibitory activity of the 7-thiaprostaglandin E1 derivatives of the invention were measured by using guinea pigs. A test drug prepared as a 30% ethanol solution of each of the compounds of the invention in ethanol diluted with physiological saline and as a control 30% ethanol solution were orally adminstered in a dose of 1 ml/kg to Hartleystrain guinea pigs having a body weight of 350 to 450 g which had been fasted for 17 hours. 1 hour or 4 hours after the administration of the compound, blood was drawn off by the cardiac puncture using trisodium citrate so that the ratio of the blood to 3.8% trisodium citrate was 9:1. The blood was centrifuged at a speed of 700 rpm for 10 minutes. The upper layer was separated as plateletrich plasma (PRP). The lower layer was further centrifuged at a speed of 2800 rpm for 10 minutes. The upper layer was separated as platelet poor plasma (PPP). 250 microliters of the resulting PRP was taken into an aggregometer cuvette, and incubated at 37° C. for 2 minutes. Then, 25 microliters of a […] ADP disodium solution adjusted by dissolving with 0.1M tris-HCl buffer (ph 8.0) was added. The aggregation curve was recorded for 3 minutes. The maximum degree of aggregation of platelets within this time period was read, and the rate of inhibitor of platelet aggregation was calculated from the following equation. [formula] TC : the transmittance of a control group (to which only the 30% ethanol solution was administered),
TD : the transmittance of a drug administered group.

| SMILES | IC50 (platelet aggregation [1]) [µg/mL] | also measured |
| --- | --- | --- |
| CCCCC[C@H](O)/C=C/[C@H]1[C@H](SCCCCCC(=O)OC)C(=O)C[C@@H]1O [15-epi-ent of Compound 124] | 8.9 (≈ 23 µM) |  |
| COC(=O)CCCCCS[C@@H]1C(=O)C[C@H](O)[C@H]1/C=C/[C@@H](O)C1CCCCC1 [15-epi-ent of Compound 138] | 0.11 (≈ 0.276 µM) |  |
| O=C(O)CCCCCS[C@H]1C(=O)C[C@@H](O)[C@@H]1/C=C/[C@@H](O)C1CCCCC1 [Compound 111, 16,17,18,19,20-pentanor-15-cyclohexyl-7-thiaprostaglandin E1] | 0.004 (≈ 0.0104 µM) | ED (10% increase of heart rate) [2]: 2.5 µg/kg; ED (20% lowering of blood pressure) [2]: 1.17 µg/kg |
| CCCCC[C@H](O)/C=C/[C@H]1[C@H](O)CC(=O)[C@@H]1SCCCCCC(=O)OC [Compound 124, 7-Thiaprostaglandin E1 methyl ester] | 0.47 (≈ 1.22 µM) |  |
| CCCC[C@H](C)C[C@H](O)/C=C/[C@H]1[C@H](O)CC(=O)[C@@H]1SCCCCCC(=O)OC [Compound 131, 17(S),20-dimethyl-7-thiaprostaglandin E1 methyl ester] | 0.0006 (≈ 0.00145 µM) | inhibition at 3 mg/kg (platelet aggregation [3]; 1 hr): 100%; ED (10% increase of heart rate) [2]: 0.83 µg/kg; ED (20% lowering of blood pressure) [2]: 2.3 µg/kg |
| CCCC[C@@H](C)C[C@H](O)/C=C/[C@H]1[C@H](O)CC(=O)[C@@H]1SCCCCCC(=O)OC [Compound 134, 17(R),20-dimethyl-7-thiaprostaglandin E1 methyl ester] | 0.0018 (≈ 0.00434 µM) |  |
| CCCCCCCCCCOC(=O)CCCCCS[C@H]1C(=O)C[C@@H](O)[C@@H]1/C=C/[C@@H](O)C1CCCCC1 [Compound 143, 16,17,18,19,20-pentanor-15-cyclohexyl-7-thiaprostaglandin E1 decyl ester] | 0.058 (≈ 0.111 µM) |  |
| O=C(CCCCCS[C@H]1C(=O)C[C@@H](O)[C@@H]1/C=C/[C@@H](O)C1CCCCC1)Oc1ccccc1 [Compound 144, 16,17,18,19,20-pentanor-15-cyclohexyl-7-thiaprostaglandin E1 phenyl ester] | 0.015 (≈ 0.0326 µM) | inhibition at 3 mg/kg (platelet aggregation [3]; 1 hr): 37.4%; inhibition at 3 mg/kg (platelet aggregation [3]; 4 hr): 3%; inhibition at 10 mg/kg (platelet aggregation [3]; 1 hr): 85.4%; inhibition at 10 mg/kg (platelet aggregation [3]; 4 hr): 79.2%; ED (10% increase of heart rate) [2]: 2.6 µg/kg; ED (20% lowering of blood pressure) [2]: 3.4 µg/kg |
| O=C(CCCCCS[C@H]1C(=O)C[C@@H](O)[C@@H]1/C=C/[C@@H](O)C1CCCCC1)OCc1ccccc1 [Compound 147, 16,17,18,19,20-pentanor-15-cyclohexyl-7-thiaprostaglandin E1 benzyl ester] | 0.054 (≈ 0.114 µM) | inhibition at 10 mg/kg (platelet aggregation [3]; 1 hr): 54%; inhibition at 10 mg/kg (platelet aggregation [3]; 4 hr): 28.9% |
| COC(=O)C(C)CCCCS[C@H]1C(=O)C[C@@H](O)[C@@H]1/C=C/[C@@H](O)C1CCCCC1 (stereo partly shown) [Compound 150, 16,17,18,19,20-pentanor-15-cyclohexyl-2-methyl-7-thiaprostaglandin E1 methyl ester] | 0.52 (≈ 1.26 µM) | inhibition at 10 mg/kg (platelet aggregation [3]; 1 hr): 20.8%; inhibition at 10 mg/kg (platelet aggregation [3]; 4 hr): 0.7% |
| COC(=O)/C=C/CCCS[C@H]1C(=O)C[C@@H](O)[C@@H]1/C=C/[C@@H](O)C1CCCCC1 [Compound 156, 16,17,18,19,20-pentanor-15-cyclohexyl-2,3-dehydro-7-thiaprostaglandin E1 methyl ester] | 0.091 (≈ 0.229 µM) |  |
| CCCC[C@H](C)C[C@H](O)/C=C/[C@H]1[C@H](O)CC(=O)[C@@H]1SCCC/C=C/C(=O)OC [Compound 160, 17(S),20-dimethyl-2,3-dehydro-7-thiaprostaglandin E1 methyl ester] | 0.64 (≈ 1.55 µM) |  |

More lines, main results first:

| IC50 (platelet aggregation [1]) [µg/mL] | SMILES | also measured |
| --- | --- | --- |
| > 100 | CCCC(C)CC(O)/C=C/[C@H]1CCC(=O)[C@@H]1SCCCCCC(=O)OC (relative stereo) [reference compound] |  |
| 0.45 (≈ 1.21 µM) | CCCCC[C@H](O)/C=C/[C@H]1[C@H](O)CC(=O)[C@@H]1CSCCCCC(=O)O [Compound 300, 6-thiaprostaglandin E1] |  |
| 0.27 (≈ 0.702 µM) | O=C(O)CCCCSC[C@H]1C(=O)C[C@@H](O)[C@@H]1/C=C/[C@@H](O)C1CCCCC1 [Compound 303, 16,17,18,19,20-pentanor-15-cyclohexyl-6-thiaprostaglandin E1] |  |
| 6 (≈ 15.5 µM) | CCCCC[C@H](O)/C=C/[C@H]1[C@H](O)CC(=O)[C@@H]1CSCCCCC(=O)OC [Compound 305, 6-thiaprostaglandin E1 methyl ester] |  |
| 0.32 (≈ 0.803 µM) | COC(=O)CCCCSC[C@H]1C(=O)C[C@@H](O)[C@@H]1/C=C/[C@@H](O)C1CCCCC1 [Compound 308, 16,17,18,19,20-pentanor-15-cyclohexyl-6-thiaprostaglandin E1 methyl ester] |  |
| 8.6 (≈ 22.2 µM) | CCCCC[C@H](O)/C=C/[C@H]1[C@H](O)CC(=O)[C@@H]1CCCSCCC(=O)OC [Compound 405, 4-thiaprostaglandin E1 methyl ester] |  |
| 2.4 (≈ 6.02 µM) | COC(=O)CCSCCC[C@H]1C(=O)C[C@@H](O)[C@@H]1/C=C/[C@@H](O)C1CCCCC1 [Compound 413] |  |
